Data: PubChem BioAssay (NCI)
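All cell lines were grown in 96-well plates and treated with compound for 48 hours. At the TGI there is no net growth.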

Key:
Assay in all cases: inhibition of tumour cell growth, NCI panel, 48 h
SF-539 CNS = tested on: SF-539 CNS
NCI-H23 lung = tested on: NCI-H23 lung
SNB-75 CNS = tested on: SNB-75 CNS
NCI/ADR-RES ovarian = tested on: NCI/ADR-RES ovarian
MCF7 breast = tested on: MCF7 breast
HOP-92 NSCLC = tested on: HOP-92 NSCLC
HOP-18 NSCLC = tested on: HOP-18 NSCLC
DMS 114 small cell lung = tested on: DMS 114 small cell lung
M14 melanoma = tested on: M14 melanoma
SF-295 CNS = tested on: SF-295 CNS
SK-MEL-28 melanoma = tested on: SK-MEL-28 melanoma
MDA-MB-231 breast = tested on: MDA-MB-231 breast
U251 CNS = tested on: U251 CNS
MDA-MB-435 = tested on: MDA-MB-435
RPMI-8226 leukemia = tested on: RPMI-8226 leukemia
SNB-19 CNS = tested on: SNB-19 CNS
ACHN renal = tested on: ACHN renal
786-0 renal = tested on: 786-0 renal
RXF 393 renal = tested on: RXF 393 renal
UACC-62 melanoma = tested on: UACC-62 melanoma
SK-MEL-5 melanoma = tested on: SK-MEL-5 melanoma
HCC-2998 colon = tested on: HCC-2998 colon
KM20L2 colon = tested on: KM20L2 colon
TK-10 renal = tested on: TK-10 renal
COLO 205 colon = tested on: COLO 205 colon
PC-3 prostate = tested on: PC-3 prostate
DMS 273 small cell lung = tested on: DMS 273 small cell lung
NCI-H522 lung = tested on: NCI-H522 lung
OVCAR-4 ovarian = tested on: OVCAR-4 ovarian
IGROV1 ovarian = tested on: IGROV1 ovarian
A549 NSCLC = tested on: A549 NSCLC
DU-145 prostate = tested on: DU-145 prostate
SF-268 CNS = tested on: SF-268 CNS
DLD-1 colon = tested on: DLD-1 colon
SR leukemia = tested on: SR leukemia
K-562 leukemia = tested on: K-562 leukemia
T-47D breast = tested on: T-47D breast
KM12 colon = tested on: KM12 colon
HCT-15 colon = tested on: HCT-15 colon
A498 renal = tested on: A498 renal
OVCAR-3 ovarian = tested on: OVCAR-3 ovarian
MOLT-4 leukemia = tested on: MOLT-4 leukemia
UACC-257 melanoma = tested on: UACC-257 melanoma
SW-620 colon = tested on: SW-620 colon
EKVX NSCLC = tested on: EKVX NSCLC
NCI-H226 lung = tested on: NCI-H226 lung
UO-31 renal = tested on: UO-31 renal
HL-60(TB) leukemia = tested on: HL-60(TB) leukemia
SK-OV-3 ovarian = tested on: SK-OV-3 ovarian
SN12C renal = tested on: SN12C renal
OVCAR-8 ovarian = tested on: OVCAR-8 ovarian
MDA-N = tested on: MDA-N
HCT-116 colon = tested on: HCT-116 colon
SNB-78 CNS = tested on: SNB-78 CNS
LXFL 529 NSCLC = tested on: LXFL 529 NSCLC
SK-MEL-2 melanoma = tested on: SK-MEL-2 melanoma
RXF-631 renal = tested on: RXF-631 renal
HS 578T breast = tested on: HS 578T breast
NCI-H460 lung = tested on: NCI-H460 lung
HOP-62 NSCLC = tested on: HOP-62 NSCLC
LOX IMVI melanoma = tested on: LOX IMVI melanoma
MALME-3M melanoma = tested on: MALME-3M melanoma
BT-549 breast = tested on: BT-549 breast
HT29 colon = tested on: HT29 colon
CCRF-CEM leukemia = tested on: CCRF-CEM leukemia
M19-MEL melanoma = tested on: M19-MEL melanoma
OVCAR-5 ovarian = tested on: OVCAR-5 ovarian
CAKI-1 renal = tested on: CAKI-1 renal
XF 498 CNS = tested on: XF 498 CNS

For O=C1C=CC(=O)c2cc(Sc3ccccc3)c(=O)ccc21, the TGI (SF-539 CNS) was 37 µM, the TGI (NCI-H23 lung) was 37 µM and the TGI (SNB-75 CNS) was 31.2 µM. It also gave a TGI (NCI/ADR-RES ovarian) of 42.1 µM, a TGI (MCF7 breast) of 23.9 µM and a TGI (HOP-92 NSCLC) of over 52.7 µM. It also gave a TGI (HOP-18 NSCLC) of 31.8 µM, a TGI (DMS 114 small cell lung) of 38.5 µM and a TGI (M14 melanoma) of 41.3 µM. The TGI (SF-295 CNS) was 27.6 µM, the TGI (SK-MEL-28 melanoma) was 35.1 µM and the TGI (MDA-MB-231 breast) was 35.4 µM. For the same compound, the TGI (U251 CNS) was 38.5 µM, the TGI (MDA-MB-435) was 71 µM and the TGI (RPMI-8226 leukemia) was 14.9 µM. The TGI (SNB-19 CNS) was 38.1 µM, the TGI (ACHN renal) was 23.3 µM and the TGI (786-0 renal) was 31.9 µM. It also gave a TGI (RXF 393 renal) of 25 µM, a TGI (UACC-62 melanoma) of 30.4 µM and a TGI (SK-MEL-5 melanoma) of 31.5 µM. For the same compound, the TGI (HCC-2998 colon) was 35.3 µM, the TGI (KM20L2 colon) was 38 µM and the TGI (TK-10 renal) was 32.2 µM. The TGI (COLO 205 colon) was 24.9 µM, the TGI (PC-3 prostate) was 33.2 µM and the TGI (DMS 273 small cell lung) was 35.1 µM. It also gave a TGI (NCI-H522 lung) of 5.96 µM, a TGI (OVCAR-4 ovarian) of 23.2 µM and a TGI (IGROV1 ovarian) of 35 µM. For the same compound, the TGI (A549 NSCLC) was 39.5 µM, the TGI (DU-145 prostate) was 31.5 µM and the TGI (SF-268 CNS) was 44.4 µM. The TGI (DLD-1 colon) was 39 µM, the TGI (SR leukemia) was 5.96 µM and the TGI (K-562 leukemia) was 8.75 µM. It also gave a TGI (T-47D breast) of 12.5 µM, a TGI (KM12 colon) of 34.4 µM and a TGI (HCT-15 colon) of 33.1 µM. It also gave a TGI (A498 renal) of 31.4 µM, a TGI (OVCAR-3 ovarian) of 43.2 µM and a TGI (MOLT-4 leukemia) of 16 µM. The TGI (UACC-257 melanoma) was 33.6 µM, the TGI (SW-620 colon) was 11.7 µM and the TGI (EKVX NSCLC) was 33.2 µM. For the same compound, the TGI (NCI-H226 lung) was 42.9 µM, the TGI (UO-31 renal) was 30.5 µM and the TGI (HL-60(TB) leukemia) was 1.79 µM. The TGI (SK-OV-3 ovarian) was 54.9 µM, the TGI (SN12C renal) was 33.9 µM and the TGI (OVCAR-8 ovarian) was 33.9 µM. For the same compound, the TGI (MDA-N) was 33.4 µM, the TGI (HCT-116 colon) was 42.6 µM and the TGI (SNB-78 CNS) was 42.6 µM. It also gave a TGI (LXFL 529 NSCLC) of 20.3 µM, a TGI (SK-MEL-2 melanoma) of 28.7 µM and a TGI (RXF-631 renal) of 43.4 µM. The TGI (HS 578T breast) was 64.8 µM, the TGI (NCI-H460 lung) was 47.6 µM and the TGI (HOP-62 NSCLC) was 47.3 µM. For the same compound, the TGI (LOX IMVI melanoma) was 27.7 µM, the TGI (MALME-3M melanoma) was 36.4 µM and the TGI (BT-549 breast) was 40 µM. For the same compound, the TGI (HT29 colon) was 41.6 µM, the TGI (CCRF-CEM leukemia) was 9.43 µM and the TGI (M19-MEL melanoma) was 35.3 µM. For the same compound, the TGI (OVCAR-5 ovarian) was 36.3 µM.
With COC(=O)C(Cc1nc2ccccc2[nH]c1=O)C(=O)C(=O)Nc1ccc([N+](=O)[O-])cc1[N+](=O)[O-] (stereo not given) the TGI (SF-539 CNS) was 38.5 µM, the TGI (NCI-H23 lung) was 35.9 µM and the TGI (SNB-75 CNS) was 39.3 µM. The TGI (HOP-18 NSCLC) was 32.1 µM, the TGI (DMS 114 small cell lung) was 35 µM and the TGI (M14 melanoma) was 32.4 µM. It also gave a TGI (SF-295 CNS) of 49.9 µM, a TGI (SK-MEL-28 melanoma) of 40.1 µM and a TGI (U251 CNS) of 32.5 µM. The TGI (RPMI-8226 leukemia) was 85.1 µM, the TGI (SNB-19 CNS) was over 100 µM and the TGI (ACHN renal) was 33.3 µM. The TGI (786-0 renal) was 32 µM, the TGI (RXF 393 renal) was 36.8 µM and the TGI (UACC-62 melanoma) was 38.9 µM. The TGI (SK-MEL-5 melanoma) was 33.1 µM, the TGI (HCC-2998 colon) was 33.2 µM and the TGI (KM20L2 colon) was 38.3 µM. The TGI (TK-10 renal) was 61.4 µM, the TGI (COLO 205 colon) was 35.2 µM and the TGI (DMS 273 small cell lung) was 47.5 µM. For the same compound, the TGI (NCI-H522 lung) was 20.8 µM, the TGI (OVCAR-4 ovarian) was 64.1 µM and the TGI (IGROV1 ovarian) was 55.4 µM. For the same compound, the TGI (A549 NSCLC) was over 100 µM, the TGI (SF-268 CNS) was 47.7 µM and the TGI (DLD-1 colon) was 42 µM. For the same compound, the TGI (SR leukemia) was over 100 µM, the TGI (K-562 leukemia) was over 100 µM and the TGI (CAKI-1 renal) was over 100 µM. For the same compound, the TGI (KM12 colon) was 30.1 µM, the TGI (HCT-15 colon) was 34.5 µM and the TGI (A498 renal) was 40.9 µM. For the same compound, the TGI (OVCAR-3 ovarian) was 30.5 µM, the TGI (MOLT-4 leukemia) was 59.1 µM and the TGI (UACC-257 melanoma) was 36.9 µM. For the same compound, the TGI (XF 498 CNS) was 34.6 µM, the TGI (SW-620 colon) was 39.6 µM and the TGI (EKVX NSCLC) was 51.2 µM. The TGI (NCI-H226 lung) was 32.1 µM, the TGI (UO-31 renal) was 43.6 µM and the TGI (HL-60(TB) leukemia) was 66.5 µM. For the same compound, the TGI (SK-OV-3 ovarian) was 64.6 µM, the TGI (SN12C renal) was 50.6 µM and the TGI (OVCAR-8 ovarian) was 52.6 µM. It also gave a TGI (HCT-116 colon) of 46.5 µM, a TGI (SNB-78 CNS) of over 100 µM and a TGI (LXFL 529 NSCLC) of 25.5 µM. For the same compound, the TGI (SK-MEL-2 melanoma) was 69 µM, the TGI (RXF-631 renal) was 73.1 µM and the TGI (NCI-H460 lung) was 49.2 µM. It also gave a TGI (HOP-62 NSCLC) of 45.4 µM, a TGI (LOX IMVI melanoma) of 44.4 µM and a TGI (MALME-3M melanoma) of 34.3 µM. The TGI (HT29 colon) was 35 µM, the TGI (CCRF-CEM leukemia) was 51.9 µM and the TGI (M19-MEL melanoma) was 33.9 µM. For the same compound, the TGI (OVCAR-5 ovarian) was 51 µM.
